Test results taken from ChEMBL document CHEMBL1142345, “Synthesis and biological evaluation of alpha- and beta-6-amido derivatives of 17-cyclopropylmethyl-3, 14beta-dihydroxy-4, 5alpha-epoxymorphinan: potential alcohol-cessation agents” (J Med Chem, 2008).

Tests used:
Homo sapiens [1] = species: Homo sapiens; experiment: Selectivity ratio of Ki for human mu opioid receptor over Ki for human delta opioid receptor
Mu-type opioid receptor [2] = molecular target: T1, Mu-type opioid receptor (Homo sapiens, UniProt P35372); experiment: Displacement of [3H]DAMGO from human mu opioid receptor expressed in CHO cells; type: cell-based
Homo sapiens [3] = species: Homo sapiens; experiment: Selectivity ratio of Ki for human mu opioid receptor over Ki for human kappa opioid receptor
[4] = molecular target: T2, Delta-type opioid receptor (Homo sapiens, UniProt P41143); experiment: biochemical
Description: Displacement of [3H]DPDPE from human delta opioid receptor expressed in CHO cells

[5] = molecular target: Kappa-type opioid receptor (Homo sapiens, UniProt P41145); experiment: Displacement of [3H]U69593 from human kappa opioid receptor expressed in CHO cells; type: cell-based
CYP2C19 = CYP2C19 (Homo sapiens, UniProt P33261); experiment: Inhibition of CYP2C19 at 10 uM; type: ADME
Rattus norvegicus = experiment: Inhibition of self alcohol consumption in rat at 0.025 mg/kg using operant techniques; type: functional
CYP2C9 = CYP2C9 (Homo sapiens, UniProt P11712); experiment: Inhibition of CYP2C9 at 10 uM; type: ADME
[6] = Metabolic stability assessed as half life in human liver S9 fraction at 40 uM; type: ADME, subcellular
CYP3A4 = CYP3A4 (Homo sapiens, UniProt P08684); experiment: Inhibition of CYP3A4 at 10 uM; type: ADME
Mu-type opioid receptor [7] = molecular target: T1, Mu-type opioid receptor
Description: Activity at human mu opioid receptor by [35S]GTPgammaS binding assay

[8] = molecular target: T2, Delta-type opioid receptor; experiment: Activity at human delta opioid receptor by [35S]GTPgammaS binding assay; type: functional
[9] = Metabolic stability assessed as half life in mouse liver microsomes at 40 uM; type: ADME, Microsome

T2 sequence (P41143 whole entry): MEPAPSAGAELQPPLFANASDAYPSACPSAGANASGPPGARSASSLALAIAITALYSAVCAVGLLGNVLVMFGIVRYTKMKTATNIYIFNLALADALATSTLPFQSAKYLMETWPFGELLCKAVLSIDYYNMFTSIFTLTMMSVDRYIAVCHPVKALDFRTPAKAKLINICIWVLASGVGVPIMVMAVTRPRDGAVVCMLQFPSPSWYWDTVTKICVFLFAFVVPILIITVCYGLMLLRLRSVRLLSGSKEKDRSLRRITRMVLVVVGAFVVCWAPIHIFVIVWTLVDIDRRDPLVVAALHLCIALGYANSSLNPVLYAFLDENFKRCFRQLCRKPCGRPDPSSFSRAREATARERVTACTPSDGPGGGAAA
T1 sequence (P35372 whole entry): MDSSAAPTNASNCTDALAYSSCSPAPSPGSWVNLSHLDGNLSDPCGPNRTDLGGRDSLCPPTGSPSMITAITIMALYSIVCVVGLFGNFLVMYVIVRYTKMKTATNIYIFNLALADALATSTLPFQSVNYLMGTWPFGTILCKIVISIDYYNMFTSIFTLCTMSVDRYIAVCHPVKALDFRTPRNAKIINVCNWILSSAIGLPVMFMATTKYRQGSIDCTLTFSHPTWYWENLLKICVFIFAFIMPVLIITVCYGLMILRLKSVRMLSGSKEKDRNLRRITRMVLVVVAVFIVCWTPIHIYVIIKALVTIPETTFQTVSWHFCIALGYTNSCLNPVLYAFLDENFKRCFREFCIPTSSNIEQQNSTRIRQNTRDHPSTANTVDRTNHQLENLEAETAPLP
Chain of Kappa-type opioid receptor (P41145 whole entry): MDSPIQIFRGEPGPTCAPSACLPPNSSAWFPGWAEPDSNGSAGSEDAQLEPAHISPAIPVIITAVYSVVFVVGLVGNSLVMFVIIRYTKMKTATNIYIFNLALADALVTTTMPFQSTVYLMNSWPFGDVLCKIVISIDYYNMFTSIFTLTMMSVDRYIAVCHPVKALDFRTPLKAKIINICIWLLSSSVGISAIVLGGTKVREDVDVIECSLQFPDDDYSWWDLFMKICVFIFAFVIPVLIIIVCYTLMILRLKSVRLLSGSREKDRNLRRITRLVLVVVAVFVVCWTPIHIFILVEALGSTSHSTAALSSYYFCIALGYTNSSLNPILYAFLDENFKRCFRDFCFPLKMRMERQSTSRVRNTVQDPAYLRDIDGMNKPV
Chain of CYP2C9 (P11712 whole entry): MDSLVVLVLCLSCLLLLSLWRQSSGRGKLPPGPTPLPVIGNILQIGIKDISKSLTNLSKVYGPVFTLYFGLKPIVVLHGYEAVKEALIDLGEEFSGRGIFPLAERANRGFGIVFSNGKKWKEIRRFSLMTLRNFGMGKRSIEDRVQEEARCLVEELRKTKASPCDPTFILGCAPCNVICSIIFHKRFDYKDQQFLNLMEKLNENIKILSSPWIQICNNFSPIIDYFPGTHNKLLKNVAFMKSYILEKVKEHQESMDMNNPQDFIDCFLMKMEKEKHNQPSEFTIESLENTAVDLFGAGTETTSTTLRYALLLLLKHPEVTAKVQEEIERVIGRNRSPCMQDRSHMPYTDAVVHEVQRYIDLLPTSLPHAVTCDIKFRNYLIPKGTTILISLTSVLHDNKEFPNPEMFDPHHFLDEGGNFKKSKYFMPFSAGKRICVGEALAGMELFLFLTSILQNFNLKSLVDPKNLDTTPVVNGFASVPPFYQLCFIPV
Chain of CYP2C19 (P33261 whole entry): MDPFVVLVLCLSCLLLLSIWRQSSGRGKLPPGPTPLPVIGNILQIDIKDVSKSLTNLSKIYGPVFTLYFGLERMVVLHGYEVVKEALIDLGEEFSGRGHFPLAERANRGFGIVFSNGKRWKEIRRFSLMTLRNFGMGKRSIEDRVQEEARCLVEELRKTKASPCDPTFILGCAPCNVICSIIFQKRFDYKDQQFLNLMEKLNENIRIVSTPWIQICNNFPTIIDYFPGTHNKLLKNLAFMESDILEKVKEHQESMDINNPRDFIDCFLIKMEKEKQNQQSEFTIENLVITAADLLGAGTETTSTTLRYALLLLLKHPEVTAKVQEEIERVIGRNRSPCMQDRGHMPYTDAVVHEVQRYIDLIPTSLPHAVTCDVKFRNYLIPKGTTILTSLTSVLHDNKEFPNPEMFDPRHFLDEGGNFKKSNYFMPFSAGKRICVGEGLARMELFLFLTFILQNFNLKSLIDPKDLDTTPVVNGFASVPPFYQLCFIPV
Chain of CYP3A4 (P08684 whole entry): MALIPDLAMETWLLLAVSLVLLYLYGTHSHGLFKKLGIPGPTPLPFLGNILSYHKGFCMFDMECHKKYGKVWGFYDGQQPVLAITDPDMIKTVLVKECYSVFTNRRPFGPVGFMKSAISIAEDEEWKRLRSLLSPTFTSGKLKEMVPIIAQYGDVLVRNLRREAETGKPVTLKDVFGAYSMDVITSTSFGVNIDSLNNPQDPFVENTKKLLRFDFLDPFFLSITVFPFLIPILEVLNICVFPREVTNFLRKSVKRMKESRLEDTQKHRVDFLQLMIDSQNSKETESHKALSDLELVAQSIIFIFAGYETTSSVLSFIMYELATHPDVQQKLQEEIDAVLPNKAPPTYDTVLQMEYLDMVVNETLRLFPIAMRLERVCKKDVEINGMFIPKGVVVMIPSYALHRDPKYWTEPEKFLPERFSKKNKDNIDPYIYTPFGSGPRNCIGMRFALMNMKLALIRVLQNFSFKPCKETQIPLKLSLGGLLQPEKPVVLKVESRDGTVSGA

SMILES	Ratio Ki (Homo sapiens [1])	Ki (Mu-type opioid receptor [2]) [nM]	Ratio Ki (Homo sapiens [3])	Ki [4] [nM]	Ki [5] [nM]	inhibition at 10 µM (CYP2C19) [%]	inhibition in vivo at 0.025 mg/kg (Rattus norvegicus) [%]	inhibition at 10 µM (CYP2C9) [%]	half-life at 40 µM [6] [h]	inhibition at 10 µM (CYP3A4) [%]	Ke (Mu-type opioid receptor [7]) [nM]	Ke [8] [nM]	half-life at 40 µM [9] [h]
COc1cccc(CC(=O)N[C@@H]2CC[C@@]3(O)[C@H]4Cc5ccc(O)c6c5[C@@]3(CCN4CC3CC3)[C@H]2O6)c1	120	0.13	3.5	15.8	0.45								
O=C(N[C@H]1CC[C@@]2(O)[C@H]3Cc4ccc(O)c5c4[C@@]2(CCN3CC2CC2)[C@H]1O5)c1ccccc1		0.21			0.78								
O=C(Cc1ccccc1)N[C@@H]1CC[C@@]2(O)[C@H]3Cc4ccc(O)c5c4[C@@]2(CCN3CC2CC2)[C@H]1O5	180	0.16	2.7	28	0.43								
O=C(N[C@@H]1CC[C@@]2(O)[C@H]3Cc4ccc(O)c5c4[C@@]2(CCN3CC2CC2)[C@H]1O5)c1ccc(Cl)c(Cl)c1						48.3	77	32.3	5.77	35.5			
COc1ccc(CC(=O)N[C@@H]2CC[C@@]3(O)[C@H]4Cc5ccc(O)c6c5[C@@]3(CCN4CC3CC3)[C@H]2O6)cc1	74	0.27	1.6	19.9	0.42								
O=C(N[C@@H]1CC[C@@]2(O)[C@H]3Cc4ccc(O)c5c4[C@@]2(CCN3CC2CC2)[C@H]1O5)c1cccc([N+](=O)[O-])c1		0.19			0.28								
O=C(O)c1ccc(C(=O)N[C@@H]2CC[C@@]3(O)[C@H]4Cc5ccc(O)c6c5[C@@]3(CCN4CC3CC3)[C@H]2O6)cc1	7860	10.1	14.9	79.2	151								
CC(C)(C)OC(=O)Nc1ccc(C(=O)N[C@@H]2CC[C@@]3(O)[C@H]4Cc5ccc(O)c6c5[C@@]3(CCN4CC3CC3)[C@H]2O6)cc1	28	0.92	0.86	25.3	0.79								
O=C(C[C@@H]1O[C@H](COCc2ccccc2)[C@@H](OCc2ccccc2)[C@H](OCc2ccccc2)[C@H]1OCc1ccccc1)N[C@H]1CC[C@@]2(O)[C@H]3Cc4ccc(O)c5c4[C@@]2(CCN3CC2CC2)[C@H]1O5	16.5	1.49	0.34	24.5	0.51						0.16	10.3	
COc1cc(OC)cc(C(=O)N[C@H]2CC[C@@]3(O)[C@H]4Cc5ccc(O)c6c5[C@@]3(CCN4CC3CC3)[C@H]2O6)c1	36	0.19	13	6.83	2.41								
COC(=O)c1ccc(C(=O)N[C@@H]2CC[C@@]3(O)[C@H]4Cc5ccc(O)c6c5[C@@]3(CCN4CC3CC3)[C@H]2O6)cc1	130	0.21	3.5	27.2	0.73								
O=C(N[C@@H]1CC[C@@]2(O)[C@H]3Cc4ccc(O)c5c4[C@@]2(CCN3CC2CC2)[C@H]1O5)c1ccccn1	180	0.31	1.3	56.3	0.39								
O=C(Cc1cccs1)N[C@H]1CC[C@@]2(O)[C@H]3Cc4ccc(O)c5c4[C@@]2(CCN3CC2CC2)[C@H]1O5	5.5	0.38	7.2	2.07	2.74								
COc1cccc(C(=O)N[C@H]2CC[C@@]3(O)[C@H]4Cc5ccc(O)c6c5[C@@]3(CCN4CC3CC3)[C@H]2O6)c1	36	0.16	4.5	5.82	0.72								0.817
